A short description of data set [1]: Half-life of model acyl hydrazones in a simulated lysosomal environment (pH 4.5). In kind it is physicochemical. The note with it: simulated lysosomal environment (acidic buffer). The text has this:
Ranging from the intracellularly readily cleavable linkers such as the acyl hydrazones to the relatively stable non-cleavable linkers, having the ability to tune the rate of release of the payload and to improve plasma stability provides opportunities not only to target a greater variety of diseased cells, but also to design agents tailored to achieve a better therapeutic window. Towards the goal of developing enhanced control of ADC linker stability, several model heterocyclic acyl hydrazones whose lability is modulated either by steric or stereoelectronic effects have been prepared.
Towards the goal developing enhanced control of ADC linker stability, several model cyclic acyl hydrazones whose lability is modulated by different substitutions have been prepared. Exemplary acyl hydrazones containing a substituted phenyl group adjacent to the imine carbon have been synthesized. […] Analogues of the heterocyclic linker compounds in Table 1 have been incorporated into linkers, using a similar strategy as employed in the linker synthesis in Mylotarg, as described in greater detail herein below

The next data set has as its system SKOV3 ovarian cells. The data set is described as follows: Cytotoxicity against SKOV3 ovarian cancer cells (ATP content, CellTiter-Glo). In kind it is cell-based. The note with it: DAR ratio 3.39 (Synagis-SMCC-DM1), 3.50 (Trastuzumab-SMCC-DM1), 6.59 (IIIa), 6.99 (IIIc). (In general: ATP-based viability assays read luminescence as a measure of living cells.)

This passage reports half-life and IC50 results from patent US11850287B2, “Heterocyclic acyl hydrazone linkers, methods and uses thereof” (Ontario Institute for Cancer Research (OICR), priority 2017, dated 2023).

Protocol for SKOV3 ovarian cells: SKOV3 ovarian cells are incubated with the effectors for a period corresponding to 2 to 3 times their estimated doubling time and the amount of viable cells is determine by measuring ATP content in the wells. […] All ADCs are diluted in DPBS to 6× the highest concentration tested, followed by 10 3-fold serial dilutions in DPBS for a total of 11 concentration points. Each point is added to triplicate wells. DPBS is added in wells to measure the maximum growth. Cells are diluted at their appropriate seeding density (ranging from 150 to 1000 cells per well) in complete media supplemented with glutamine 2 mM, serum and antibiotic cocktail. They are distributed in white, opaque bottom, tissue-culture treated 384 well plates and incubated for 24 hrs at 37° C.+5% CO2. […] Total ATP is measured using CellTiter-Glo reagent from Promega as recommended by the supplier. […] Signal output is measured on a luminescence plate reader (envision, Perkin Elmer) set at an integration time of 0.1 sec. […]
Each concentration point (S) is normalized to the negative control wells (NC) and expressed as % survival (NC-S/NC×100). Potency (IC50) and efficacy are calculated from a non-linear curve fit of the points versus log of the concentrations without constrain on the slope. Refined data are analysed using Prism software.

As usually defined, the half-life is the time needed for the level to fall by half in the phase considered. Take `CC(=O)N/N=C1\CCOc2ccc(F)cc21` [E]: the half-life in data set [1] is 139 min. The IC50 is the concentration needed to halve the response being measured. Consider Synagis-SMCC-DM1: negative control ADC, for which the IC50 with SKOV3 ovarian cells turned out to be 9.64 nM.
